Data published in patent publication EP4663632A1, “COMPOUNDS USEFUL FOR THE MODULATION OF THE ACTIVITY OF STING” (Sulis Therapeutics ApS, priority 2024, dated 2025).
Entries after “also recorded” stand apart in the source; their conditions may differ.

How the values were obtained:
Format in all cases: cell-based
STING [1] = biological target: T1, STING (Homo sapiens, UniProt Q86WV6); assay: Western Blot analysis for STING degradation in H596 cells; conditions: 24h; for STING degradation (Western Blot, Figure 1): H596 cells, 0.22 µM, 0.67 µM, 2 µM and 6 µM
T1 sequence (Q86WV6 whole entry): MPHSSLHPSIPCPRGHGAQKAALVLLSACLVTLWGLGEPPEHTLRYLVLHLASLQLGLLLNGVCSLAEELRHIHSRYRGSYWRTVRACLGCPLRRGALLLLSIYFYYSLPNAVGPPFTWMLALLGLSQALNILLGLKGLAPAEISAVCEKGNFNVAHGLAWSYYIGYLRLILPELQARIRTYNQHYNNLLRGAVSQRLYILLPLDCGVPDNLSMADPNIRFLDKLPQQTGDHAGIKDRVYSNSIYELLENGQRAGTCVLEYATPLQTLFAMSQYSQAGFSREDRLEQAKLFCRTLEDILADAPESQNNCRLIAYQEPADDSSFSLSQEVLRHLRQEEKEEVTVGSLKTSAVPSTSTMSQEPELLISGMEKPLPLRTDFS
Procedure: For cell lysing for Western Blot analysis cell culture plates were brought to ice, supernatant was removed by aspiration and cells washed 2x in ice-cold DPBS. Cells were lysed in 65 µL of RIPA buffer supplemented with cOmplete ULTRA Tablets protease inhibitor cocktail, PIERCE Phosphatase inhibitor mini tablet, Benzonase and 10mM NaF for 20 min on ice. Lysates were collected, cleared by centrifugation (13000xg for 10 min at 4°C). Samples were either analysed directly or stored at -80°C until analysis.
For Western Blotting, total protein concentration in each lysate was determined using PIERCE Gold BCA Assay kit according to manufactures protocol. 6 µg of total protein was mixed with 2x Laemmli buffer containing DTT, boiled for 5 min at 95°C, cooled on ice and loaded into each well of a 4-20% Criterion TGX gel. Proteins were separated by electrophoresis, by running for 1h at 150V. After separation proteins were blotted onto a PVDF membrane by semi-dry transfer using Trans-Blot turbo system at pre-defined BioRad MIDI protocol; 25V, 1A (fixed) for 30 min. Membranes were blocked for 1h in 5% skim milk in TBS-T20 on a rocker at room temperature followed by washing and exposure to primary antibodies against human STING 1:1000 (Cell Signalling, #13647) or loading controls Vinculin 1:1000 (Cell Signalling, #13901) or beta-Actin 1:10000 (Sigma, A5441) all diluted in 5% BSA in TBS-T20. Membranes were probed over night at 4°C on a rocker. Membranes were washed 3x in TBS-T20 followed by exposure to secondary HRP-conjugated anti-rabbit antibody or HRP-conjugated anti-mouse antibody diluted 1:10000 in 5% skim milk in TBS-T20 as appropriate. Membranes were incubated for 1h at room temperature on a rocker, then washed 3x in TBS-T20.
For generating DC50 values, the intensity of individual bands was measured using imaged and expression levels were calculated as a ratio of STING intensities vs. Reference protein intensities and normalized to DMSO control. The normalized ratios were plotted on a XY curve in GraphPad Prism where DC50 was estimated using a 4-parameter non-linear regression fitting curve.
To assess STING degradation in H596 cells (ATCC, HTB-178) cells were seeded at a density of 100.000 cells/well in 24-well Nunclon Delta surface treated culture plate in RPMI-1640 growth medium (supplemented with 10% FBS, 1% Pen-strep). Cells were incubated over-night at 37°C 5% CO2 to allow adhesion. Next day growth medium was renewed and a 5x concentration of test compounds (2.5% DMSO) diluted in growth medium were added to the appropriate well. Final DMSO concentration was 0.5%. Cell culture plates were returned to the incubator for additional 24h. Final test compound concentrations were 0.22 µM, 0.67 µM, 2 µM and 6 µM.
(§1) For cell lysis, western blotting and data analysis, the methods described above for HFF-1 cells were applied.

STING [2] = biological target: T1, STING; assay: Inhibition of STING-agonist-induced IFN-β release in HFF-1 cells (HFF-1 STING inhibition assay); design: host or cells: HFF-1 human foreskin fibroblasts; conditions: 24h with compound, then 0.3 µM diABZI c3, 6h; ELISA
Procedure: To evaluate cellular effects of test compounds, we assessed inhibition of STING-agonist-induced IFN-β release in human foreskin fibroblasts HFF-1 cells (ATCC, SCRC-1041). Cells were seeded at a density of 10.000 cells/well in 96-well Nunclon Delta surface treated culture plate in DMEM growth medium (supplemented with 10% FBS, 1% Pen-strep). Cells were incubated over-night at 37°C 5% CO2 to allow adhesion. Next morning growth medium was renewed and a 7x concentration 3-step dilution series of test compounds (2,1% DMSO) diluted in growth medium were added to the appropriate well. Final DMSO concentration was 0.3%. […] Cells culture plates were further incubated, and supernatants were harvested after 6h and immediately stored at -20°C until determination of IFN-β release. Cell supernatants were analysed for IFN-β release using DuoSet human IFN-β ELISA (R&D systems, DY-814) following manufactures protocol except using 96-well, half-volume plates from Corning and subsequently use half volume for all steps throughout the protocol. In brief, plates were coated o/n with a 130x dilution of capturing antibody in PBS. Wells were washed 3x with PBS-T20 followed by blocking with 1% BSA diluted in TBS-T20 for 1h. […] Wells were washed 3x with PBS-T20 and detection antibody diluted 1:60 in 1% BSA in PBS was added to each well and incubated for 2h at rt. […]

STING [3] = biological target: T2, STING (Mus musculus, UniProt Q3TBT3); assay: Western Blot analysis for STING degradation in mouse RAW264.7 cells; design: endogenous in cells; host or cells: RAW264.7 mouse cells; conditions: 19.5nM to 10 µM, 24 hours
T2 sequence (Q3TBT3 1-378): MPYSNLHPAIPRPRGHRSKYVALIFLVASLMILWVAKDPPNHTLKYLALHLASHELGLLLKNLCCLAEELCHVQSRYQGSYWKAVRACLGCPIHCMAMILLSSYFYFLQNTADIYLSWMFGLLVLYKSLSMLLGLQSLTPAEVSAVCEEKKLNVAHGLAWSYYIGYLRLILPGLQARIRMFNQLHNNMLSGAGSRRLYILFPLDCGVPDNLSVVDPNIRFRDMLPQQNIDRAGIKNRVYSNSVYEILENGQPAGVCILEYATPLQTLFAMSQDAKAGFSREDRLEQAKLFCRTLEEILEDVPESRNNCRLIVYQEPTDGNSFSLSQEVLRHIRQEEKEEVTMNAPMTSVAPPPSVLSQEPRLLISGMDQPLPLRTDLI
Procedure: To assess STING degradation in RAW264.7 cells, cells were seeded at a density of 60.000 cells/well in 24-well Nunclon Delta surface treated culture plate in RPMI-1640 growth medium (supplemented with 10% FBS, 1% Pen-strep). Cells were incubated over-night at 37°C 5% CO2 to allow adhesion. Next day growth medium was renewed and a 5x concentration of test compounds (2.5% DMSO) diluted in growth medium were added to the appropriate well. Final DMSO concentration was 0.5%. Cells were treated with a titration of test compound from 19.5nM to 10 µM 24 hours prior to cells lysis and subsequently analyzed by WB using anti-STING (1:1000) and anti-VCL (1:1000) antibodies. Controls included UT (DMSO) and 1.8µM diABZI treated cells.
as §1

| SMILES | STING degradation (Western Blot, Figure 1) (STING [1]) | EC50 (STING [2]) [nM] | STING degradation (Western Blot, Figure 2) (STING [3]) | DC50 (STING [1]; reference protein beta-actin) [nM] |
| --- | --- | --- | --- | --- |
| CCn1nc(C)cc1C(=O)N=c1n(C)c2cc(C(N)=O)ccc2n1CCC(CCn1c(=NC(=O)c2cc(C)nn2CC)n(C)c2cc(C(N)=O)ccc21)OCC(=O)NCCOCCOCCOCCOCCC(=O)NCCOCCOCCOCCOCCNc1cccc2c1C(=O)N(C1CCC(=O)NC1=O)C2=O (stereo not shown) [Example 16] | induced STING degradation in all cell lines tested at all concentrations tested; also recorded: showed a more potent effect of induction of STING degradation than Example compound 14 | < 200 | dose-dependent STING degradation | – |
| CCn1nc(C)cc1C(=O)N=c1n(C)c2cc(C(N)=O)ccc2n1CCC(CCn1c(=NC(=O)c2cc(C)nn2CC)n(C)c2cc(C(N)=O)ccc21)OCC(=O)NCCOCCOCCOCCOCCC(=O)NCCOCCOCCOCCOCC(=O)N[C@H](C(=O)N1C[C@H](O)C[C@H]1C(=O)NCc1ccc(-c2scnc2C)cc1)C(C)(C)C (stereo partly shown) [Example 14] | inducing visible degradation in H1650 and H596 at the higher concentrations tested | 1000 to 5000 | dose-dependent STING degradation | 1000 to 5000 |
